According to patent US7058616B1, “Method and system for predicting resistance of a disease to a therapeutic agent using a neural network” (Virco Bvba, priority 2000, dated 2006):

What was measured:
HIV-1 [1] = test: MT-4 cell viral cytopathic effect protection assay, phenotypic susceptibility of patient recombinant virus; type: cell-based
Method: Phenotypic susceptibility was determined using a MT-4 cell viral cytopathic effect protection assay. See, e.g., Kashiwase et al., Chemotherapy 45(1):48–55 (1999), expressly incorporated herein by reference; Larder et al., Antimicrob. Agents Chemother. 43(8):1961–1967 (1999).

HIV-1 [2] = settings: cited from earlier work; for Effect of 333D/E mutation: reverses the M184V effect

SMILES: Nc1ccn([C@@H]2CS[C@H](CO)O2)c(=O)n1 [3TC]
- actual phenotype resistance level (HIV-1 [1]; Table 3 testing sample 1): S/S (A fold resistance of less than or equal to 4 is considered to be “sensitive,”)
- actual phenotype resistance level (HIV-1 [1]; Table 3 testing sample 2): R/R (if the value is greater than 10, it is considered to be “resistant.”)
- actual phenotype resistance level (HIV-1 [1]; Table 3 testing sample 3): R/R (if the value is greater than 10, it is considered to be “resistant.”)
- actual phenotype resistance level (HIV-1 [1]; Table 3 testing sample 4): S/S (A fold resistance of less than or equal to 4 is considered to be “sensitive,”)
- actual phenotype resistance level (HIV-1 [1]; Table 3 testing sample 5): R/R (if the value is greater than 10, it is considered to be “resistant.”)
- actual phenotype resistance level (HIV-1 [1]; Table 3 testing sample 6): R (if the value is greater than 10, it is considered to be “resistant.”)
- actual phenotype resistance level (HIV-1 [1]; Table 3 testing sample 7): R/R (if the value is greater than 10, it is considered to be “resistant.”)
- actual phenotype resistance level (HIV-1 [1]; Table 3 testing sample 8): R/R (if the value is greater than 10, it is considered to be “resistant.”)
- actual phenotype resistance level (HIV-1 [1]; Table 3 testing sample 9): R/R (if the value is greater than 10, it is considered to be “resistant.”)
- actual phenotype resistance level (HIV-1 [1]; Table 3 testing sample 10): S/S (A fold resistance of less than or equal to 4 is considered to be “sensitive,”)
- Effect of M184V mutation on 3TC susceptibility (HIV-1 [2]): confers resistance
- Effect of 333D/E mutation (HIV-1 [2]): dual AZT/3TC resistance

SMILES: CC(C)CN(C[C@@H](O)[C@H](Cc1ccccc1)NC(=O)O[C@H]1CCOC1)S(=O)(=O)c1ccc(N)cc1 [VX-478]
- actual phenotype resistance level (HIV-1 [1]; PI test sample 1): S/S (A fold resistance of less than or equal to 4 is considered to be ‘sensitive’)
- actual phenotype resistance level (HIV-1 [1]; PI test sample 2): S/S (A fold resistance of less than or equal to 4 is considered to be ‘sensitive’)
- actual phenotype resistance level (HIV-1 [1]; PI test sample 3): S/S (A fold resistance of less than or equal to 4 is considered to be ‘sensitive’)
- actual phenotype resistance level (HIV-1 [1]; PI test sample 4): I/I (greater than 4 and less than 10 is considered to be ‘intermediate’)
- actual phenotype resistance level (HIV-1 [1]; PI test sample 6): S/S (A fold resistance of less than or equal to 4 is considered to be ‘sensitive’)
- actual phenotype resistance level (HIV-1 [1]; PI test sample 7): S/S (A fold resistance of less than or equal to 4 is considered to be ‘sensitive’)
- actual phenotype resistance level (HIV-1 [1]; PI test sample 8): S/S (A fold resistance of less than or equal to 4 is considered to be ‘sensitive’)
- actual phenotype resistance level (HIV-1 [1]; PI test sample 9): S/S (A fold resistance of less than or equal to 4 is considered to be ‘sensitive’)
- actual phenotype resistance level (HIV-1 [1]; PI test sample 10): S/S (A fold resistance of less than or equal to 4 is considered to be ‘sensitive’)
- actual phenotype resistance level (HIV-1 [1]; PI test sample 11): S/S (A fold resistance of less than or equal to 4 is considered to be ‘sensitive’)
- actual phenotype resistance level (HIV-1 [1]; PI test sample 12): S/S (A fold resistance of less than or equal to 4 is considered to be ‘sensitive’)
- actual phenotype resistance level (HIV-1 [1]; PI test sample 13): I/I (greater than 4 and less than 10 is considered to be ‘intermediate’)
- actual phenotype resistance level (HIV-1 [1]; PI test sample 14): S/S (A fold resistance of less than or equal to 4 is considered to be ‘sensitive’)
- actual phenotype resistance level (HIV-1 [1]; PI test sample 15): S/S (A fold resistance of less than or equal to 4 is considered to be ‘sensitive’)
- actual phenotype resistance level (HIV-1 [1]; PI test sample 16): R/R (if the value is greater than 10, it is considered to be ‘resistant’)
- actual phenotype resistance level (HIV-1 [1]; PI test sample 18): S/S (A fold resistance of less than or equal to 4 is considered to be ‘sensitive’)
- actual phenotype resistance level (HIV-1 [1]; PI test sample 19): S/S (A fold resistance of less than or equal to 4 is considered to be ‘sensitive’)
- actual phenotype resistance level (HIV-1 [1]; PI test sample 20): S/S (A fold resistance of less than or equal to 4 is considered to be ‘sensitive’)
- actual phenotype resistance level (HIV-1 [1]; PI test sample 21): S/S (A fold resistance of less than or equal to 4 is considered to be ‘sensitive’)
- actual phenotype resistance level (HIV-1 [1]; PI test sample 22): S/S (A fold resistance of less than or equal to 4 is considered to be ‘sensitive’)
- actual phenotype resistance level (HIV-1 [1]; PI test sample 23, listed as Amprenavir): R/R (if the value is greater than 10, it is considered to be ‘resistant’)
- actual phenotype resistance level (HIV-1 [1]; PI test sample 24): R/R (if the value is greater than 10, it is considered to be ‘resistant’)
- actual phenotype resistance level (HIV-1 [1]; PI test sample 26): S/S (A fold resistance of less than or equal to 4 is considered to be ‘sensitive’)
- actual phenotype resistance level (HIV-1 [1]; PI test sample 30): I/I (greater than 4 and less than 10 is considered to be ‘intermediate’)
- actual phenotype resistance level (HIV-1 [1]; PI test sample 31, listed as Amprenavir): R/R (if the value is greater than 10, it is considered to be ‘resistant’)
- actual phenotype resistance level (HIV-1 [1]; PI test sample 36, listed as APV): I/I (greater than 4 and less than 10 is considered to be ‘intermediate’)
- actual phenotype resistance level (HIV-1 [1]; PI test sample 38, listed as Amprenavir): I/I (greater than 4 and less than 10 is considered to be ‘intermediate’)
- actual phenotype resistance level (HIV-1 [1]; PI test sample 39): I/I (greater than 4 and less than 10 is considered to be ‘intermediate’)
- actual phenotype resistance level (HIV-1 [1]; PI test sample 44): I/I (greater than 4 and less than 10 is considered to be ‘intermediate’)
- actual phenotype resistance level (HIV-1 [1]; PI test sample 46): I/I (greater than 4 and less than 10 is considered to be ‘intermediate’)
- actual phenotype resistance level (HIV-1 [1]; PI test sample 49): I/I (greater than 4 and less than 10 is considered to be ‘intermediate’)
- actual phenotype resistance level (HIV-1 [1]; Table 3 testing sample 1): S/S (A fold resistance of less than or equal to 4 is considered to be “sensitive,”)
- actual phenotype resistance level (HIV-1 [1]; Table 3 testing sample 2): S (A fold resistance of less than or equal to 4 is considered to be “sensitive,”)
- actual phenotype resistance level (HIV-1 [1]; Table 3 testing sample 3): S/S (A fold resistance of less than or equal to 4 is considered to be “sensitive,”)
- actual phenotype resistance level (HIV-1 [1]; Table 3 testing sample 6): S/S (A fold resistance of less than or equal to 4 is considered to be “sensitive,”)
- actual phenotype resistance level (HIV-1 [1]; Table 3 testing sample 7): S/S (A fold resistance of less than or equal to 4 is considered to be “sensitive,”)
- actual phenotype resistance level (HIV-1 [1]; Table 3 testing sample 8): S/S (A fold resistance of less than or equal to 4 is considered to be “sensitive,”)
- actual phenotype resistance level (HIV-1 [1]; Table 3 testing sample 9): S/S (A fold resistance of less than or equal to 4 is considered to be “sensitive,”)
- actual phenotype resistance level (HIV-1 [1]; Table 3 testing sample 10): S/S (A fold resistance of less than or equal to 4 is considered to be “sensitive,”)
- actual phenotype (HIV-1 [1]; Table 13/14 sample 4: 10I,46I,71V,77I,84V,90M, 63P,93L): S (A fold resistance of less than or equal to 4 is considered to be ‘sensitive’)
- actual phenotype (HIV-1 [1]; Table 13/14 sample 12: 10I,36I,46I,84V,90M, 20I,63P,73C,85V): R (if the value is greater than 10, it is considered to be ‘resistant’)
- actual phenotype (HIV-1 [1]; Table 13/14 sample 15: 46I,84V,90M, 20I,63Q): I (greater than 4 and less than 10 is considered to be ‘intermediate’)
- actual phenotype (HIV-1 [1]; Table 13/14 sample 16: 10I,46I,77I,84V,90M, 63P,73T,93L): S (A fold resistance of less than or equal to 4 is considered to be ‘sensitive’)
- actual phenotype (HIV-1 [1]; Table 13/14 sample 22: 10I,20R,36I,71V,73S,84V,90M, 13V,63P): I (greater than 4 and less than 10 is considered to be ‘intermediate’)
- actual phenotype (HIV-1 [1]; Table 13/14 sample 23: 10I,46I,77I,90M, 20I,63P,73T): S (A fold resistance of less than or equal to 4 is considered to be ‘sensitive’)
- Effect of N88S mutation on susceptibility (HIV-1 [2]; in vitro): in vitro hypersensitivity

SMILES: Cc1cn([C@H]2C[C@H](N=[N+]=[N-])[C@@H](CO)O2)c(=O)[nH]c1=O [AZT, 3′-azido-3′-deoxythymidine]
- Effect of M184V mutation on AZT resistance (HIV-1 [2]): reverses AZT resistance
- Effect of 333D/E mutation (HIV-1 [2]): dual AZT/3TC resistance
